Measurements taken from PubChem BioAssay AID328 (DTP/NCI, 2004).
Values joined by “and” are separate entries in the source; they are usually repeats but may differ in a detail not shown here. Equal values may be shown once. Toxic doses and inconclusive results are not listed. Residues, ends and D or L forms follow the SMILES beside them. *: point of attachment. Cbz = O=C(OCc1ccccc1)*; OtBu = CC(C)(C)O*

Tested on: BDF1 mice, P388 leukemia ip, median survival T/C
Experiment: NCI In Vivo Anticancer Drug Screen. Data for tumor model P388 Leukemia (intraperitoneal) in B6D2F1 (BDF1) mice
Details: endpoint: median survival time, higher = longer survival
Summary of the method: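 Vehicle-dosed animals serve as the reference; survival of compound-dosed, tumour-implanted mice is divided by it.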

[1] = dose: 50.0 mg/kg/injection, schedule: Q01DX009 (ip), vehicle: saline with Tween-80
[2] = dose: 100.0 mg/kg/injection, schedule: Q01DX009 (ip), vehicle: saline with Tween-80
[3] = dose: 200.0 mg/kg/injection, schedule: Q01DX009 (ip), vehicle: saline with Tween-80
[4] = dose: 400.0 mg/kg/injection, schedule: Q01DX009 (ip), vehicle: saline with Tween-80
[5] = dose: 100.0 mg/kg/injection, schedule: Q04DX003 (ip), vehicle: saline with Tween-80
[6] = dose: 200.0 mg/kg/injection, schedule: Q04DX003 (ip), vehicle: saline with Tween-80
[7] = dose: 400.0 mg/kg/injection, schedule: Q04DX003 (ip), vehicle: saline with Tween-80
[8] = dose: 100.0 mg/kg/injection, schedule: Q04DX003 (ip), vehicle: saline
[9] = dose: 200.0 mg/kg/injection, schedule: Q04DX003 (ip), vehicle: saline
[10] = dose: 400.0 mg/kg/injection, schedule: Q04DX003 (ip), vehicle: saline
[11] = dose: 12.5 mg/kg/injection, schedule: Q01DX009 (ip), vehicle: saline
[12] = dose: 25.0 mg/kg/injection, schedule: Q01DX009 (ip), vehicle: saline
[13] = dose: 50.0 mg/kg/injection, schedule: Q01DX009 (ip), vehicle: saline
[14] = dose: 50.0 mg/kg/injection, schedule: Q04DX003 (ip), vehicle: saline
[15] = dose: 100.0 mg/kg/injection, schedule: Q01DX009 (ip), vehicle: saline
[16] = dose: 6.25 mg/kg/injection, schedule: Q01DX009 (ip), vehicle: water
[17] = dose: 12.5 mg/kg/injection, schedule: Q01DX009 (ip), vehicle: water
[18] = dose: 25.0 mg/kg/injection, schedule: Q01DX009 (ip), vehicle: water
[19] = dose: 100.0 mg/kg/injection, schedule: Q01DX009 (ip), vehicle: Klucel (hydroxypropylcellulose) (HPC)
[20] = dose: 100.0 mg/kg/injection, schedule: Q04DX003 (ip), vehicle: Klucel (hydroxypropylcellulose) (HPC)
[21] = dose: 200.0 mg/kg/injection, schedule: Q01DX009 (ip), vehicle: Klucel (hydroxypropylcellulose) (HPC)
[22] = dose: 200.0 mg/kg/injection, schedule: Q04DX003 (ip), vehicle: Klucel (hydroxypropylcellulose) (HPC)
[23] = dose: 400.0 mg/kg/injection, schedule: Q01DX009 (ip), vehicle: Klucel (hydroxypropylcellulose) (HPC)
[24] = dose: 400.0 mg/kg/injection, schedule: Q04DX003 (ip), vehicle: Klucel (hydroxypropylcellulose) (HPC)
[25] = dose: 100.0 mg/kg/injection, schedule: Q04DX003 (ip), vehicle: other
[26] = dose: 200.0 mg/kg/injection, schedule: Q04DX003 (ip), vehicle: other
[27] = dose: 400.0 mg/kg/injection, schedule: Q04DX003 (ip), vehicle: other

Nc1cccs1
T/C (dose: 9.38 mg/kg/injection, schedule: Q01DX009 (ip), vehicle: other): 104 % of control | T/C (dose: 18.75 mg/kg/injection, schedule: Q01DX009 (ip), vehicle: other): 100 % of control | T/C (dose: 37.5 mg/kg/injection, schedule: Q01DX009 (ip), vehicle: other): 100 % of control | T/C [1]: 98 % of control | T/C (dose: 75.0 mg/kg/injection, schedule: Q01DX009 (ip), vehicle: other): 98 % of control | T/C [2]: 116 % of control | T/C (dose: 150.0 mg/kg/injection, schedule: Q01DX009 (ip), vehicle: other): 101 % of control | T/C [3]: 114 % of control | T/C [4]: 87 % of control

CC1(COCCOCC2(C)CO2)CO1 (stereo not drawn)
T/C (dose: 400.0 mg/kg/injection, schedule: Q01DX009 (ip), vehicle: saline): 175 % of control | T/C (dose: 600.0 mg/kg/injection, schedule: Q01DX009 (ip), vehicle: saline): 208 % of control

Clc1c(CBr)c(Cl)c(CBr)c(Cl)c1CBr
T/C (dose: 12.5 mg/kg/injection, schedule: Q01DX009 (ip), vehicle: Klucel (hydroxypropylcellulose) (HPC)): 113 % of control | T/C (dose: 25.0 mg/kg/injection, schedule: Q01DX009 (ip), vehicle: Klucel (hydroxypropylcellulose) (HPC)): 122 % of control

CC(C)(C)OC(=O)c1cccc(C(=O)OC(C)(C)C)c1
T/C (dose: 100.0 mg/kg/injection, schedule: Q04DX002 (ip), vehicle: saline with Tween-80): 103 % of control | T/C (dose: 200.0 mg/kg/injection, schedule: Q04DX002 (ip), vehicle: saline with Tween-80): 95 % of control | T/C (dose: 400.0 mg/kg/injection, schedule: Q04DX002 (ip), vehicle: saline with Tween-80): 94 % of control

COC1CCC(C=O)C(C#N)(C#N)C1(C#N)C#N (stereo not drawn)
T/C (dose: 50.0 mg/kg/injection, schedule: Q01DX001 (ip), vehicle: saline with Tween-80): 112 % of control | T/C (dose: 100.0 mg/kg/injection, schedule: Q01DX001 (ip), vehicle: saline with Tween-80): 100 % of control

CCCCCCC(CCCCCC)(CCCCCC)B1OCCO1
T/C [2]: 100 % of control | T/C [5]: 100 % of control | T/C [3]: 104 % of control | T/C [6]: 109 % of control | T/C [4]: 123 % of control | T/C [7]: 104 % of control

CCOC(=O)CN1C(=O)C(Cl)=C(Cl)C1=O
T/C (dose: 3.12 mg/kg/injection, schedule: Q01DX009 (ip), vehicle: Klucel (hydroxypropylcellulose) (HPC)): 95 % of control | T/C (dose: 6.25 mg/kg/injection, schedule: Q01DX009 (ip), vehicle: Klucel (hydroxypropylcellulose) (HPC)): 95 % of control | T/C (dose: 9.2 mg/kg/injection, schedule: Q04DX003 (ip), vehicle: Klucel (hydroxypropylcellulose) (HPC)): 100 % of control | T/C (dose: 14.0 mg/kg/injection, schedule: Q04DX003 (ip), vehicle: Klucel (hydroxypropylcellulose) (HPC)): 91 % of control | T/C (dose: 21.0 mg/kg/injection, schedule: Q04DX003 (ip), vehicle: Klucel (hydroxypropylcellulose) (HPC)): 91 % of control | T/C (dose: 29.0 mg/kg/injection, schedule: Q04DX003 (ip), vehicle: Klucel (hydroxypropylcellulose) (HPC)): 100 % of control

O=C(OCCBr)c1ccccc1[N+](=O)[O-]
T/C [8]: 100 % of control | T/C [9]: 104 % of control | T/C [10]: 109 % of control

COc1ccc(/C=C/C(=O)c2ccc3c(c2)OCO3)cc1O
T/C (dose: 3.12 mg/kg/injection, schedule: Q01DX009 (ip), vehicle: saline): 104 % of control and 106 % of control | T/C (dose: 6.25 mg/kg/injection, schedule: Q01DX009 (ip), vehicle: saline): 93 % of control and 104 % of control | T/C [11]: 100 % of control | T/C [12]: 94 % of control and 110 % of control | T/C [13]: 101 % of control and 107 % of control | T/C [14]: 106 % of control | T/C [15]: 93 % of control and 96 % of control | T/C [8]: 113 % of control | T/C [9]: 104 % of control | T/C [10]: 114 % of control

COC(=O)C(Cc1cnc2nc(N)nc(N)c2n1)C(=O)OC
T/C (dose: 1.56 mg/kg/injection, schedule: Q01DX009 (ip), vehicle: water): 100 % of control | T/C (dose: 3.13 mg/kg/injection, schedule: Q01DX009 (ip), vehicle: water): 90 % of control | T/C [16]: 100 % of control | T/C [17]: 100 % of control | T/C [18]: 111 % of control

CCC(C)C(NC(=O)OCc1ccccc1)C(=O)NC(C(=O)NC(CCC(=O)OC(C)(C)C)C(=O)OC)C(C)C (stereo not drawn) (Cbz-Ile-Val-Glu(OtBu)-OMe; configuration not given here)
T/C (dose: 100.0 mg/kg/injection, schedule: Q04DX003 (ip), vehicle: saline sonified): 90 % of control | T/C (dose: 200.0 mg/kg/injection, schedule: Q04DX003 (ip), vehicle: saline sonified): 90 % of control | T/C (dose: 400.0 mg/kg/injection, schedule: Q04DX003 (ip), vehicle: saline sonified): 95 % of control

COc1ccc(N=C/C=C/c2ccccc2)cc1
T/C [5]: 104 % of control | T/C [6]: 100 % of control | T/C [7]: 109 % of control

Clc1ccccc1N1CN(c2ccccc2Cl)CN(c2ccccc2Cl)C1
T/C [1]: 104 % of control | T/C [2]: 100 % of control | T/C [3]: 100 % of control

COc1ccc(C(O)(CS(C)=O)c2cccs2)cc1 (stereo not drawn)
T/C [2]: 107 % of control | T/C [3]: 99 % of control

COC(=O)CCCCCC(O)C1CCC2OC(=O)CC21C (stereo not drawn)
T/C [5]: 100 % of control | T/C [6]: 100 % of control | T/C [7]: 100 % of control

OC(CC(O)(C(F)(F)F)C(F)(F)F)c1ccccc1 (stereo not drawn)
T/C [5]: 100 % of control | T/C [6]: 118 % of control | T/C [7]: 113 % of control

CC(=O)c1ccccc1I
T/C [19]: 100 % of control | T/C [20]: 104 % of control | T/C [21]: 95 % of control | T/C [22]: 100 % of control | T/C [23]: 100 % of control | T/C [24]: 95 % of control

NS(=O)(=O)O
T/C [11]: 91 % of control | T/C [12]: 87 % of control

Cc1cc(C(C)(C)CC(C)(C)C)cc(O)c1O
T/C [25]: 113 % of control | T/C [26]: 109 % of control | T/C [27]: 100 % of control

CC(N)Cc1ccc(N(C)C)cc1F (stereo not drawn)
T/C (dose: 25.0 mg/kg/injection, schedule: Q01DX009 (ip), vehicle: saline with Tween-80): 96 % of control | T/C [12]: 103 % of control | T/C [1]: 96 % of control | T/C [13]: 98 % of control and 107 % of control | T/C [2]: 107 % of control | T/C [15]: 96 % of control

CCOC(=O)c1nc2nc(Cl)c(Cl)nc2[nH]1
T/C (dose: 4.0 mg/kg/injection, schedule: Q01DX009 (ip), vehicle: saline): 90 % of control | T/C (dose: 25.0 mg/kg/injection, schedule: Q04DX003 (ip), vehicle: saline): 93 % of control | T/C (dose: 32.0 mg/kg/injection, schedule: Q01DX009 (ip), vehicle: saline): 89 % of control | T/C [14]: 98 % of control | T/C [8]: 102 % of control | T/C [9]: 93 % of control

COC(=O)c1cc(OC)cc(OC)c1
T/C [25]: 100 % of control | T/C [26]: 113 % of control | T/C [27]: 109 % of control

N#Cc1c(NN)n(C2OC(CO)C(O)C2O)c2ncnc(N)c12 (stereo not drawn)
T/C [14]: 100 % of control | T/C (dose: 83.0 mg/kg/injection, schedule: Q04DX003 (ip), vehicle: saline): 100 % of control

CCCCc1ccc(Sc2cccc3c2C(=O)c2c(Sc4ccc(CCCC)cc4)cccc2C3=O)cc1
T/C [2]: 95 % of control | T/C [3]: 90 % of control | T/C [4]: 95 % of control

CNNCc1ccc(/C=N/NC(N)=S)cc1
T/C [16]: 106 % of control | T/C [17]: 114 % of control | T/C [18]: 92 % of control | T/C (dose: 50.0 mg/kg/injection, schedule: Q01DX009 (ip), vehicle: water): 92 % of control

CCCCOC(=S)Nc1ccccc1
T/C (dose: 50.0 mg/kg/injection, schedule: Q01DX009 (ip), vehicle: other): 100 % of control | T/C (dose: 100.0 mg/kg/injection, schedule: Q01DX009 (ip), vehicle: other): 99 % of control

O=C(O)C(Cc1ccc(O)cc1)c1ccccc1 (stereo not drawn)
T/C [19]: 86 % of control | T/C [20]: 90 % of control | T/C [21]: 95 % of control | T/C [22]: 90 % of control | T/C [23]: 109 % of control | T/C [24]: 95 % of control
